From article PMC12856972 (Clinical Pharmacology in Drug Development, 2025)

Columns and labels:
[1] = system: healthy volunteers; experiment: ARCI 49 abuse liability checklist
[2] = system: healthy volunteers; experiment: Quantitative EEG profiling
[3] = system: healthy volunteers; experiment: Subjective feelings on VAS
[4] = system: healthy volunteers; experiment: Karolinska Sleepiness Scale
[5] = system: healthy volunteers; experiment: Digit Symbol Substitution Test
[6] = system: healthy volunteers; experiment: Peak Saccadic Velocity
[7] = system: healthy volunteers; settings: in vivo
[8] = suspension taken with food, out‐patient, NCT02933606; cited from earlier work
[9] = system: healthy volunteers; experiment: CCK‐4 induced panic model; format: in vivo, human; settings: 2000 mg
[10] = Plasma PK, suspension vs 150 mg tablet cross-over trial BNC210.009; format: in vivo, human; settings: 300 mg tablet
[11] = Plasma PK, food effect SAD trial BNC210.002; format: in vivo, human; settings: suspension
[12] = Urinary excretion of unchanged drug, trial BNC210.001; format: in vivo, human; settings: suspension, fasted
[13] = system: patients with GAD; settings: cited from earlier work
[14] = system: healthy volunteers; experiment: Neuroendocrine biomarkers serum cortisol and ACTH; settings: Phase 1 trials
[15] = system: healthy volunteers; experiment: PEPSY psychometric test battery; format: in vivo, human; settings: up to 1000 mg BID for 8 days; Day 1 and Day 8
[16] = system: healthy volunteers; experiment: Safety and tolerability, Phase 1 trials; format: in vivo, human
[17] = Plasma PK, single ascending dose trial BNC210.001; format: in vivo, human; settings: suspension, fasted
[18] = system: patients with PTSD; settings: 12‐week; cited from earlier work
[19] = target: α7 nAChR (Homo sapiens, UniProt P36544); experiment: Nicotine shift assay, qEEG α2 band; format: in vivo; settings: 1,000 mg BID; particularly with 2 mg nicotine
[20] = Plasma PK, SAD trial BNC210.010; format: in vivo, human; settings: 150 mg‐strength tablet, fasted, up to 1200 mg
[21] = system: social anxiety disorder patients; settings: as‐needed acute dosing, NCT05193409; cited from earlier work
[22] = Plasma PK, 7-day trial BNC210.011; format: in vivo, human
[23] = system: mouse and rat behavioral models of anxiety and stress‐related disorders; settings: cited from earlier work
[24] = Plasma PK, multiple ascending dose trial BNC210.005; format: in vivo, human
[25] = Phase 1 trials in healthy volunteers, N = 173

Chain of α7 nAChR (P36544 23-502): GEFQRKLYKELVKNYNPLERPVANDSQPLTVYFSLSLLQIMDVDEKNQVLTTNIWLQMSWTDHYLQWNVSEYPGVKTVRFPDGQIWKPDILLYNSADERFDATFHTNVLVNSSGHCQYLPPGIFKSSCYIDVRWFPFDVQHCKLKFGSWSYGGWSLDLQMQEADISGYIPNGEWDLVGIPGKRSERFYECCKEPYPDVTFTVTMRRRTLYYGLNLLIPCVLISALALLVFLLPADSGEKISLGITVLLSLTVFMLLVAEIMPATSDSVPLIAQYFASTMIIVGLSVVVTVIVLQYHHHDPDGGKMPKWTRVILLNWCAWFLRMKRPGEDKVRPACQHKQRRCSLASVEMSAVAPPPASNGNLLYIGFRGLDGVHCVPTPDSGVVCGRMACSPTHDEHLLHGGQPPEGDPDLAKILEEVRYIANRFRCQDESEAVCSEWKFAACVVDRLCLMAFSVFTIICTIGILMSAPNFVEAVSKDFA

## O=C1Nc2ccc(Cl)cc2C(c2ccccc2Cl)=NC1O (stereo not shown) [lorazepam, reference compound]
[1]; 2 mg, P = 0.056
  ARCI 49 benzedrine subscale vs placebo: tended to score lower
[2]; 2 mg
  qEEG delta activity vs placebo: increased delta activity during both the Resting and Vigilance‐Controlled conditions
[3]; 2 mg, trial BNC210.003, 6 h time point, P < 0.05
  eVAS mood vs placebo: mood‐lowering effect
[4]; 2 mg, 6‐h (P < 0.001), 9‐h (P < 0.05)
  Karolinska Sleepiness Scale vs placebo: significant increase in the feeling of sleepiness
[5]; 2 mg, 6‐h (P < 0.001), 9‐hour (P < 0.05)
  Digit Symbol Substitution Test vs placebo: significant effect
[6]; 2 mg, 6, 9, and 12 h (P < 0.001)
  Peak saccadic velocity (mean maximum) vs placebo: significantly slower
[7]
  Total reaction time vs placebo: significantly higher

## CCn1cc(C(=O)N2CCOCC2)c(=O)c2cc(NC3Cc4ccccc4C3)cnc21 [BNC210]
[8]
  Plasma levels, population PK analysis: appreciably lower than expected
[1]; trials BNC210.003, BNC210.004, BNC210.005
  ARCI 49 checklist: No clinically significant feelings associated with any classes of drugs of abuse
[9]; 5 min post CCK‐4 injection, P = 0.104
  eVAS emotional stability vs placebo: trend
[9]; 10 min post CCK‐4 injection, 15 evaluable responders, P < 0.041
  PSS Sum Intensity score vs placebo: significant reduction
[9]; 10 min post CCK‐4 injection, 15 evaluable responders, P < 0.048
  PSS Total Symptom score vs placebo: significant reduction
[2]; 300 mg dose only
  qEEG alpha power: small decrease in alpha power
[2]; 300 and 2000 mg
  qEEG delta activity vs placebo: increased delta EEG activity in the resting condition, but not the Vigilance‐Controlled condition
  qEEG delta power: some increase in delta power in the Resting condition only
[2]; in vivo
  Overlap of EEG profile with lorazepam: little overlap in EEG profiles
  qEEG beta‐3: only a slight increase
[3]; trials BNC210.001, .002, .003, .005, basal state
  Subjective feelings on VAS (16‐item Bond and Lader or eVAS): No effects on subjective feelings
[10]; fasted
  Tmax: 2 h
[10]; fed
  Tmax: 4 h
[11]; 300 mg, fed vs fasted
  Increase in AUC with food: 3.5 fold
  Increase in Cmax with food: more than doubling
[11]; fed
  Increase in AUC at 2000 mg over 1200 mg: 15%
[11]; fed, 600 and 1200 mg
  Dose proportionality of exposure: approximately dose‐proportional
[12]; single 5 mg
  Drug excreted unchanged in the urine: 13.6 % of the dose administered
[12]; single 2000 mg
  Drug excreted unchanged in the urine: 0.6 % of the dose administered
[4]; 300 and 2000 mg
  Karolinska Sleepiness Scale vs placebo: no increase in sleepiness
[13]
  Threat avoidance behavior and self‐reported anxiety: significantly reduced
[14]
  Effect on serum cortisol or ACTH: No consistent effects
[15]
  Cognition, PEPSY test battery: no overall consistent effect on cognition
[16]; [25]
  TEAE Fatigue: 7 (4.1) n (%)
  TEAE Headache: 35 (20.2) n (%)
  TEAE Nausea: 8 (4.6) n (%)
  TEAE Somnolence: 16 (9.3) n (%)
[16]; SAD and MAD trials
  Dose relationship of CNS TEAEs (headache, somnolence, nausea, fatigue): did not suggest a dose relationship
[16]; eight Phase 1 trials
  Serious adverse events: no serious adverse events were reported
[16]; up to 2000 mg suspension and 1200 mg tablet
  Maximum tolerated dose: No maximum tolerated dose was found
[17]; beyond 600 mg
  Change in exposure with dose: no appreciable further increase in exposure
[17]; dose levels up to 50 mg
  Dose proportionality of AUC and Cmax: increased approximately dose proportionately
[5]; 300 mg, 6‐h P < 0.05
  Digit Symbol Substitution Test vs placebo: no effects with 300 mg, except at the 6‐h time point only
[5]; 2000 mg
  Digit Symbol Substitution Test vs placebo: no effects at any time point
[6]; 300 and 2000 mg
  Peak saccadic velocity vs placebo: did not show any significant effect
[18]
  PTSD total symptom severity scores, depression, insomnia vs placebo: effective at significantly reducing
[19]
  Extent of inhibition of nicotine‐induced α2 band response: partial
[7]
  Total reaction time vs placebo: no increases in total reaction time
[20]
  Dose proportionality of Cmax and AUC: increased proportionally with dose
[21]
  Anxiety levels vs placebo: improvements in anxiety levels
[22]; 225 mg‐strength tablet, 900 mg BID
  Day from which steady state achieved: 3 days
[22]; in vivo
  Steady state AUC0‐12, tablet 900 mg BID vs suspension 1000 mg BID: double
[23]; broad therapeutic dosage range
  Activity in behavioral models of anxiety and stress‐related disorders: effective
[23]; preclinical pharmacology and toxicology studies
  Side effects in rodent models: did not elicit sedation, memory or motor impairment, or physical dependence
[24]; suspension BID, increasing dose levels
  Dose proportionality of exposures: less than dose‐proportional
[24]; suspension, 1000 mg BID (2000 mg/day)
  Mean steady state AUC0–12: 24900 ng·h/mL
[24]; suspension, 150 and 300 mg BID
  Day steady state achieved: 2 days
[24]; suspension, 600 and 1000 mg BID
  Day steady state achieved: 6 days
